Data on one substance can be found in US20150037341A1, “Diagnostic and Therapeutic Method” (Plysackaridforskning i Uppsala AB, priority 2011, published 2015).

For assay [1], the target named is T1, recombinant human WT TTR (Homo sapiens, UniProt P02766).
T1 construct: made in house; host or cells: bacteria
In words: Thioflavin T (ThT) fluorescence assay of TTR fibrillization in vitro. The class given is biochemical. Here is the method:
(§1) (A, B) The TTR dissolved in phosphate buffer (50 μM, pH 2.7) was incubated alone or with different heparin or HS (12 μM) at 37° C. for 48 h. After incubation the samples were mixed with ThT and fluorescence was measured. Data shown represent triplicate experiments (means±SEM). (C) TTR (500 μM) incubated with heparin (0, 5 or 20 μM) under the same conditions were analyzed with native-PAGE as described in Methods. […] The fibrils migrated in the stacking gel is not shown. (D) Microscopic analysis of the TTR after incubation with heparin. The sample was spotted on a glass and stained with Congo red. Images were taken under fluorescent light (Original magnification: 20×; Scale bar: 5 μm) and polarized light (insert).
(§2) Recombinant wild-type TTR was expressed in bacteria and purified as described previously (Furuya et al. (1991) Biochemistry 30:2415-2421). The purified protein was dissolved in 20 mM phosphate buffer-citric acid (pH 2.7, 3.5, 4.5 or 7.4) to a final concentration of 50 μM for Thioflavin T fluorescence or 500 μM for native-PAGE. Heparin (3H-labeled or unlabeled) and HS were added to the TTR solution to the concentrations as indicated in the respective figure legend. The samples were incubated at 37° C. for the time period as specified.
After incubation, 5 μl of the sample was mixed with ThT in water to a final concentration of 20 μM ThT. The mixture was transferred to a flat bottom-black 96-well plate (Grainer) and the fluorescence was measured at excitation- and emission wavelength of 440 and 480 nm, respectively (Gain=55, FARcyte instruments). Samples aggregated at different pHs were adjusted to neutral pH after completed incubation prior to ThT staining. The experiments were run in duplicate or triplicate.

Assay [2] deals with T2, recombinant wild-type TTR (Homo sapiens, UniProt P02766).
T2 construct: made in house; host or cells: bacteria
Put plainly: Native-PAGE of TTR incubated with heparin (Coomassie, Alcian blue, 3H counting of gel sections). The format is biochemical. Here is the method:
TTR dissolved in phosphate buffer (pH 2.7) was co-incubated with heparin (mixture of ^3H-labeled and non-labeled) at 37° C. for 48 h. (A) The TTR-heparin co-incubated sample and heparin alone were separated with native-PAGE and stained with Alcian blue. (B) An identical set of samples was separated on the native-PAGE as above, and each lane was cut into six sections (as illustrated in A). The gel slices were incubated for 2 hr in H2O to extract the heparin. The radioactivity was measured by scintillation counting.
TTR dissolved in phosphate buffer (pH 2.7) was incubated without heparin at 37° C. for 48 h. Heparin (mixture of ^3H-labeled and nonlabeled) was then added and the TTR-heparin sample was incubated for an additional hour at 37° C. The sample was thereafter separated by native-PAGE and the gel was cut into 6 sections as illustrated in FIG. 4A. Radioactivity in each section was measured by scintillation counting. Data represents triplicate experiments (mean±SEM).
as §2
After incubation, 10 μl of the samples was mixed with 2.5 μl of a 5× sample buffer (0.3 M Tris-HCl, pH 6.8, 0.05% bromophenol blue, 50% glycerol) and loaded onto a 10% polyacrylamide gel without SDS. […] For quantification of ^3H-labeled heparin, the corresponding lanes in the gel were cut into six sections including the stacking gel (see FIG. 4A) that were transferred to a scintillation vial in 3 ml of H2O. After 2 hr incubation, 2 ml of scintillation cocktail was added and the radioactivity was measured.

Assay [3] has as its target T3, full-length TTR (native, dissociated or aggregated) (Homo sapiens, UniProt P02766).
T3 construct: Equal mole of TTR-peptides or full-length protein (with or without acidic dissociation); made in house; host or cells: bacteria
In words: Nitrocellulose-filter trapping of 3H-labeled heparin bound to full-length TTR. The format is binding. The protocol:
(A) TTR amino acid sequence where histidine “(+)” and other basic amino acids “+” are marked. (B) Equal mole of TTR-peptides or full-length protein (with or without acidic dissociation), were incubated with ^3H-labeled heparin (1500 cpm) at pH 5.0. The amount of ^3H-labeled heparin bound to the peptides was analyzed using a nitrocellulose-filter trapping method.
Recombinant wild type TTR (500 μM) was dissolved in phosphate buffer (pH 7.4 or 2.7) and incubated at 37° C. for the time period as indicated. (a) The incubated samples were analyzed for their degree of aggregation with native PAGE. (b) The samples were incubated with ^3H-labelled heparin for 30 min at room temperature. The amount of heparin bound to the samples with different aggregation degree was analyzed by a nitrocellulose-filter trapping method.

Assay [4] addresses T2, recombinant wild-type TTR. In words: Congo red staining of TTR after incubation with heparin. The format is biochemical. The following applies: fluorescence and polarized light microscopy. Here is the method:
as §1

With heparin, in assay [1] (TTR 50 μM, pH 2.7, 37° C., 48 h, in the presence of heparin), the “ThT fluorescence (fibril content)” value came to 8000 AU. Further, the “Effect on TTR fibrillization/aggregation (ThT fluorescence)” value in assay [1] (TTR 50 μM, pH 2.7, heparin or HS 12 μM, 37° C., 48 h) was “prompted TTR aggregation, forming substantial amounts of amyloid-like fibrils”. Besides, the “Effect on TTR fibrillization (ThT fluorescence)” value in assay [1] (pH 2.7 and 5.0) is on record as “greatly promoted TTR fibrillization”. Further, the “Migration pattern of TTR aggregates on native-PAGE” value in assay [2] (TTR 500 μM, heparin 5 or 20 μM, pH 2.7, 37° C., 48 h) is reported as “substantial macromolecular TTR aggregates migrating in the top of the gel”. For the same substance, in assay [2] (TTR aggregated 48 h without heparin, then heparin for 1 h at 37° C.), the “Interaction of 3H-labeled heparin with pre-aggregated TTR (gel sections)” value is “no or very little heparin interacted with aggregated TTR”. Besides, in assay [2] (pH 2.7, 37° C., 48 h co-incubation), the “Recovery of 3H-labeled heparin in gel sections after co-incubation with TTR” value was “substantially recovered in section 1”. Moreover, the “Binding of 3H-labelled heparin to aggregated TTR” value in assay [3] (TTR 500 μM pre-incubated at pH 7.4 or 2.7, heparin 30 min at room temperature) is reported as “binds to aggregated TTR”. Further, the “Binding of 3H-labeled heparin to dissociated versus native full-length TTR” value in assay [3] (pH 5.0) was “preferentially bound to dissociated TTR”. The “Congo red staining of fibrils” value in assay [4] was “Congo red positive fibrils”.
